Test results taken from the supplement of paper PMC10307832.

Legend:
Assay in all cases: relative viability (nuclei count vs DMSO), 5 days (fraction); higher = more cells survive
[1] = compound: Cn1c(=O)n(-c2ccc(C(C)(C)C#N)cc2)c2c3cc(-c4cnc5ccccc5c4)ccc3ncc21 [Dactolisib] + O=C(c1cc(Cc2n[nH]c(=O)c3ccccc23)ccc1F)N1CCN(C(=O)C2CC2)CC1 [Olaparib] (partner 8 µM)
Procedure, shortened: (§1)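 Five library-drug doses in √10 steps were combined with a fixed anchor-drug dose, or a single drug was given alone, by pin tool to lung cancer cell lines in 1536-well plates the day after seeding. Nuclei were stained and counted after 5 days. Relative viability is the nuclei count in treated wells over that in vehicle wells, taken as the median of duplicate plates.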

[2] = compound: Cn1c(=O)n(-c2ccc(C(C)(C)C#N)cc2)c2c3cc(-c4cnc5ccccc5c4)ccc3ncc21 [Dactolisib] + C[C@@H](Oc1cc(-c2cnn(C3CCNCC3)c2)cnc1N)c1c(Cl)ccc(F)c1Cl [Crizotinib] (partner 1 µM)
Procedure, shortened: as §1

[3] = compound: C1CCC(CC1)N(CCNCCC2=C3C(=C(C=C2)O)NC(=O)CO3)C(=O)CCNCCC4=CC(=C(C=C4)Cl)Cl [AZ505] + C[C@]1(O)C[C@@H](c2nc(-c3ccc4ccc(-c5ccccc5)nc4c3)c3c(N)nccn32)C1 [Linsitinib] (partner 1 µM)
Procedure, shortened: as §1

[4] = compound: Cn1c(=O)n(-c2ccc(C(C)(C)C#N)cc2)c2c3cc(-c4cnc5ccccc5c4)ccc3ncc21 [Dactolisib] + Nc1nc2[nH]cc(CCc3ccc(C(=O)N[C@@H](CCC(=O)O)C(=O)O)cc3)c2c(=O)[nH]1 [Pemetrexed] (partner 0.2 µM)
Procedure, shortened: as §1

Cell Line | relative viability ([1]; first compound 0.002 µM) | relative viability ([1]; first compound 0.006325 µM) | relative viability ([1]; first compound 0.02 µM) | relative viability ([1]; first compound 0.06325 µM) | relative viability ([1]; first compound 0.2 µM) | relative viability ([2]; first compound 0.002 µM) | relative viability ([2]; first compound 0.006325 µM) | relative viability ([2]; first compound 0.02 µM) | relative viability ([2]; first compound 0.06325 µM) | relative viability ([2]; first compound 0.2 µM) | relative viability ([3]; first compound 0.08 µM) | relative viability ([3]; first compound 0.253 µM) | relative viability ([3]; first compound 0.8 µM) | relative viability ([3]; first compound 2.53 µM) | relative viability ([3]; first compound 8 µM) | relative viability ([4]; first compound 0.002 µM) | relative viability ([4]; first compound 0.006325 µM) | relative viability ([4]; first compound 0.02 µM) | relative viability ([4]; first compound 0.06325 µM) | relative viability ([4]; first compound 0.2 µM)
NCI-H1993 | 1.29 | 0.865 | 0.827 | 0.432 | 0.37 | 0.84 | 0.761 | 0.66 | 0.594 | 0.585 | 0.677 | 0.654 | 0.728 | 0.91 | 0.7 | 0.554 | 0.496 | 0.49 | 0.345 | 0.421
NCI-H520 | 0.328 | 0.308 | 0.284 | 0.144 | 0.128 | 0.813 | 0.658 | 0.539 | 0.207 | 0.174 | 0.911 | 1.1 | 0.85 | 1.04 | 0.955 | 0.537 | 0.506 | 0.364 | 0.213 | 0.115
NCI-H647 | 0.54 | 0.349 | 0.315 | 0.129 | 0.0846 | 1.21 | 0.848 | 0.5 | 0.133 | 0.124 | 1.08 | 1.36 | 1.04 | 1.29 | 1.22 | 0.144 | 0.172 | 0.194 | 0.154 | 0.101
NCI-H1792 | 0.427 | 0.319 | 0.394 | 0.135 | 0.101 | 1.15 | 0.971 | 0.921 | 0.601 | 0.294 | 0.552 | 0.652 | 0.424 | 0.509 | 0.577 | 0.625 | 0.473 | 0.313 | 0.109 | 0.0622
SW 1573 | 0.557 | 0.324 | 0.418 | 0.162 | 0.145 | 0.989 | 0.712 | 0.66 | 0.572 | 0.317 | 0.666 | 0.828 | 0.849 | 0.872 | 0.829 | 0.696 | 0.768 | 0.584 | 0.284 | 0.203
NCI-H2009 | 0.656 | 0.692 | 0.65 | 0.759 | 0.312 | 1.01 | 1.05 | 1.02 | 0.986 | 0.566 | 1.1 | 1.22 | 1.12 | 1.11 | 1.15 | 1.09 | 1.07 | 1 | 0.964 | 0.498
LOU-NH91 | 0.832 | 0.901 | 0.886 | 0.608 | 0.632 | 0.718 | 0.715 | 0.698 | 0.593 | 0.515 | 0.838 | 0.92 | 0.857 | 0.915 | 0.962 | 0.287 | 0.377 | 0.372 | 0.431 | 0.445
NCI-H2405 | 0.866 | 0.86 | 0.858 | 0.5 | 0.409 | 0.758 | 0.867 | 0.849 | 0.541 | 0.38 | 0.585 | 0.639 | 0.62 | 0.563 | 0.714 | 1.1 | 1.03 | 0.972 | 0.641 | 0.378
